According to paper PMC9103351, “Effects of the Bark Resin Extract of Garcinia nigrolineata on Chronic Stress-Induced Memory Deficit in Mice Model and the In Vitro Monoamine Oxidases and β-Amyloid Aggregation Inhibitory Activities of Its Prenylated Xanthone Constituents” (Molecules, 2022):

Key:
[1] = tested on: UCMS mice; assay: Morris Water Maze Test (MWMT) in UCMS mice; assay type: in vivo, ICR mice
Protocol: Five-week-old male ICR mice (weight: 20-30 g), which were acquired from Nomura Siam International (Pathumwan, Bangkok, Thailand), were maintained at the Animal Unit of the Faculty of Pharmaceutical Sciences, Khon Kaen University. Mice were cared for in accordance with the Guiding Principles for the Care and Use of Animals (NIH Publications No. 80-23, revised in 2011). The facilities sustained a 12 h light/dark cycle, constant temperature (22 ± 2 °C), and humidity (45 ± 2%), with full access to food and drink. The current research was authorized by the Animal Ethics Committee for Use and Care of Khon Kaen University (IACUC-KKU-121/64) Mice in the stress groups received mild stressors for 6 weeks. […] In each trial, the latency to reach the platform (escape latency) and the distance covered were recorded for 5 days. […] After completion of the probe test, the time spent in the target quadrant (Q1) was counted as an index of reference memory.

[2] = tested on: UCMS mice; assay: Y-maze test in UCMS mice; assay type: in vivo, ICR mice; settings: 100 mg/kg/day p.o., vs vehicle-treated UCMS group
Protocol: Five-week-old male ICR mice (weight: 20–30 g), which were acquired from Nomura Siam International (Pathumwan, Bangkok, Thailand), were maintained at the Animal Unit of the Faculty of Pharmaceutical Sciences, Khon Kaen University. Mice were cared for in accordance with the Guiding Principles for the Care and Use of Animals (NIH Publications No. 80–23, revised in 2011). The facilities sustained a 12 h light/dark cycle, constant temperature (22 ± 2 °C), and humidity (45 ± 2%), with full access to food and drink. The current research was authorized by the Animal Ethics Committee for Use and Care of Khon Kaen University (IACUC-KKU-121/64)
Mice in the stress groups received mild stressors for 6 weeks. […]
Y-maze test was used to evaluate spontaneous alternation related to a sudden recall, a performance that was previously described by Kraeuter et al. with some modification. […] Mice were allowed to explore the maze for 4 min, during which their number and sequence of arms visits and spontaneous alternations were recorded. […] The measure of the animal recalling a memory is the percentage alternation, which was calculated by the following equation:% Alternation = [(Number of alternations)/(Total arm entries − 2)] × 100

vitamin E
time spent in the target quadrant (MWMT probe, day 6) ([1]; 100 mg/kg/day oral): significantly increased | escape latency (MWMT training) ([1]; three weeks of treatment, days 3, 4 and 5): significantly reduced | percentage of spontaneous alternation (Y-maze) [2]: significantly increased
